Here are results for 3 compounds from patent US12150938B2, “Biomarker of polycystic kidney disease and uses thereof” (Genzyme Corporation, priority 2015, dated 2024).

Experiment [1] relates to AMBP protein. Put plainly: Immunoblot of AMBP protein levels in urine and kidney samples of treated jck mice. It is filed as in vivo, mouse. The procedure: Kidney samples were homogenized in RIPA buffer (Boston BioProducts) including 1 mM DTT, 5 mM EDTA, 2 mM NaF, 1 mM Na3VO4 (all supplied by Sigma-Aldrich), Pefabloc SC and Complete Proteinase Inhibitor Cocktail (both from Roche Applied Science). Protein concentrations were determined by BCA protein assay (Pierce). Urine samples were briefly centrifuged at 3000 RPM for 10 minutes at 4° C. (Beckman Coulter Allegra 6A) to remove cellular debris. An equal volume of urine was diluted in 5× Laemmli Buffer (15% SDS, 0.575 M sucrose, 0.325 M Tris, pH 6.8, 5% beta-mercaptoethanol and 0.002% bromophenol blue). Equal amounts of protein and urine were loaded onto 4-14% NuPage Bis-Tris gels following the manufacturer's protocols (Invitrogen). Membranes were blocked with 5% nonfat milk in Tris-buffered saline (TBS) including 0.1% Tween-20 and incubated with primary antibodies overnight at 4° C. Primary antibodies were detected with horseradish peroxidase-labeled secondary antibodies (Promega). Immunoreactive proteins were detected by enhanced chemiluminescence (GE Healthcare). Primary antibodies to the following proteins were used: α-1-microglobulin and β-actin (Abcam), and GAPDH (US Biological).
Roscovitine was administered ad libitum to jck mice from 26 to 64 days of age by mixing in powdered 5053 diet at 0.2%. The GCSi (Genz-123346) was administered ad libitum to jck mice from day 26 to day 64 after birth by mixing in powdered 5053 diet at 0.225% (Natoli et al., Nature Med. 16:788-792, 2010). Chronic and pulse treatment with S-CR8 was performed by daily intraperitoneal injection with 24 mg/kg starting from day 26 after birth. Urine was collected for 24 hours consecutively (at day 26, 33, 41, 48, and 64 after birth) over a 5-week period from animals with a range of disease severity measured by kidney to body weight ratio (K/BW) and cystic percentage (C %).
A second set of experiments was performed in jck mice to determine a second CDK inhibitor, S-CR8, would decrease both AMBP levels and kidney volume. In these experiments, the jck animals were administered one of the following treatment schedules starting at day 26 after birth: (A) daily intraperitoneal injection with 24 mg/kg S-CR8 for five weeks; (B) daily intraperitoneal injection with 24 mg/kg S-CR8 for three weeks, and two weeks with no treatment; and (D) daily intraperitoneal injection with 24 mg/kg S-CR8 for one week and four weeks with no treatment (FIG. 18). As a control, jck animals were administered a vehicle between day 26 to day 64 after birth.
For orientation: Immunoblotting shows a protein as a band on a membrane.

In experiment [2] the test system is jck mice. Kind of experiment: Treatment of jck mice (PKD model): kidney volume / cyst volume. It is filed as in vivo, mouse. How it is done:
C57BL/6J jck/+ mice were maintained for mating. Cystic jck/jck mice were genotyped as previously described (Smith et al., J. Am. Soc. Nephrol. 17:2821-2831, 2006). […] conditional knockout mice were generated as described previously (Natoli et al., Nature Med. 16:788-792, 2010). The […] gene was deleted by inducing the Cre recombinase activity with tamoxifen delivered in sunflower oil (Sigma-Aldrich, St. Louis, MO), on postnatal day 1 with 100 mg/kg.
A jck mouse model of PKD (Smith et al., J. Am. Soc. Nephrol. 17:2821-2831, 2006) was used to assess the expression of AMBP. Jck mice are characterized by development of moderately progressive renal cystic disease. Kidneys from the jck mouse model are enlarged by day 26 after birth and have multiple cysts. […] Renal function in jck mice, as measured by serum creatinine and blood urea nitrogen, progressively elevates over time. […] Cysts originating from the proximal tubules are not detected in jck mice (Smith et al., J. Am. Soc. Nephrol. 17:2821-2831, 2006).
Roscovitine was administered ad libitum to jck mice from 26 to 64 days of age by mixing in powdered 5053 diet at 0.2%. […] Urine was collected for 24 hours consecutively (at day 26, 33, 41, 48, and 64 after birth) over a 5-week period from animals with a range of disease severity measured by kidney to body weight ratio (K/BW) and cystic percentage (C %). […]

Where [3] appears, read: 0.225% in diet day 26 to day 64 after birth, day 64, vs vehicle (FIG. 22).
The mark [4] stands for this setting: oral 0.2% in feed day 26 to day 64 after birth, day 64, vs vehicle (FIG. 17).

On to `CCCCCCCCC(=O)N[C@H](CN1CCCC1)[C@H](O)c1ccc2c(c1)OCCO2` [Genz-123346], for which, in experiment [1] (setting [3]), the “AMBP levels in kidney tissue samples” value is “decrease” and the “AMBP levels in urine samples” value is on record as “decrease”.
In the case of `CC[C@@H](CO)Nc1nc(NCc2ccc(-c3ccccn3)cc2)c2ncn(C(C)C)c2n1` [S-CR8], the “urine AMBP protein levels” value in experiment [1] (daily intraperitoneal 24 mg/kg from day 26, all tested schedules (A, B, D), urine at day 64, vs vehicle (FIGS. 20 and 21)) is given as “decrease”. Besides, the “cyst volume (cystic volume as percentage of body weight, FIG. 19)” value in experiment [2] (daily intraperitoneal 24 mg/kg from day 26, all tested schedules (A 5 weeks, B 3 weeks, D 1 week), vs vehicle) is “decrease”.
`CC[C@H](CO)Nc1nc(NCc2ccccc2)c2ncn(C(C)C)c2n1` [roscovitine]: in experiment [1] (setting [4]), the “AMBP protein levels in kidney samples” value is “decrease” and the “AMBP protein levels in urine” value is listed as “decrease”. In addition, the “kidney volume (kidney to body weight, FIG. 16)” value in experiment [2] (oral 0.2% in feed day 26 to day 64 after birth, measured at day 64, vs vehicle) is on record as “decrease”.
